The record followed here is publication PMC12040169 (PLOS Biology, 2025).

The nature of the data set: in vitro. The conditions noted are these: human, hela cells, % viability.

On to `O=C(c1ccco1)N1CCC(c2onc3c2CCCCC3)CC1` [CBK284486], for which the viability at 28.5 h, 10 µM was found to be 91%.

In the case of `CN(CC1CCCCO1)C(=O)c1ccc(-c2ccccc2C(N)=O)cc1` (centres unmarked) [CBK306967], the viability at 28.5 h, 10 µM was 92.6%. Same read-out and setting: the figure for `O=C(O)c1sc2ncccc2c1NS(=O)(=O)c1ccc(C(F)(F)F)cc1[N+](=O)[O-]` [CBK050647] is 118%. Same read-out and setting: the figure for `Cc1c(S(=O)(=O)N2CCN(C3CCN(C)CC3)CC2)sc2ccc(C(C)C)cc12` [CBK170352] is 105%. The same measure, in the same setting: the figure for `O=c1[nH]cc(-c2ccccc2)cc1CNc1ccccc1-n1ccnc1` [CBK284769] is 101%.

With `CCOC(=O)c1c(-c2ccccc2)oc2ccc(OCC(=O)NN)cc12` [CBK263826], the viability at 28.5 h, 10 µM turned out to be 91.8%.

`OC[C@H]1OCC[C@H]1O` [CBK201263]: the viability at 28.5 h, 10 µM turned out to be 113%. The same measure, in the same setting: the figure for `CCc1nnc(NS(=O)(=O)c2ccc(NCc3cc(Cl)cc(Cl)c3O)cc2)s1` [CBK126494] is 112%. Same read-out and setting: the figure for `O=C(NCc1ccccc1)c1ccc2[nH]nnc2c1` [CBK200368] is 86.9%. Turning to `Cc1cccc(C(C)CNC(=O)N2CCC(Cc3cnn(C)c3)C2)c1` (centres unmarked) [CBK305301], the viability at 28.5 h, 10 µM was 96.9%.

As for `COc1ccc(C(=O)N(CCC#N)Cc2ccco2)cc1` [CBK304862], the viability at 28.5 h, 10 µM stood at 93.5%. Take `Cc1c(C(C)NCC(C)(C)N(C)C)cnn1-c1ccc(C#N)cc1` (centres unmarked) [CBK306447]: the viability at 28.5 h, 10 µM was 87.7%. On the same count and under the same terms, with `CN1CCN(S(=O)(=O)c2ccc(N3CCOCC3)nc2)CC1` [CBK062434] the figure was 87.9%; with `C/N=c1\cccccc1NC` [CBK022788], 110%. Still for that read-out and setting: the figure for `Cc1cc(CC(=O)N2CCN(CCNC(=O)C3CCCC3)CC2)no1` [CBK306376] is 113%; for `c1ccc(-c2oc3ncn4nc(COc5cccc6ccccc56)nc4c3c2-c2ccccc2)cc1` [CBK262898] it is 99.9%. On the same count and under the same terms, with `Cc1nc(NC(=O)c2cccc(NC(=O)C3CCCO3)c2)sc1-c1n[nH]c(=S)n1C` (centres unmarked) [CBK295341] the figure was 86.9%; with `Cn1cc(C2CCCCCN2S(=O)(=O)c2ccc(F)cc2)cn1` (centres unmarked) [CBK284739], 91.7%. As to `c1cncc(-c2csc(Nc3nc4cc5c(cc4s3)OCO5)n2)c1` [CBK287490], the viability at 28.5 h, 10 µM is 87.2%. As to `CC(C)(C)C1CCC(OCC(O)CN2CCN(CCO)CC2)CC1` (centres unmarked) [CBK278263C], the viability at 28.5 h, 10 µM was found to be 89.8%. In the case of `CCn1ncc2c1CCCC2NC1CCN(c2ccccc2F)C1=O` (centres unmarked) [CBK305279], the viability at 28.5 h, 10 µM came out at 108%. On to `Cc1noc(NS(=O)(=O)c2ccc(NC(=O)/C=C/c3ccc(Cl)cc3Cl)cc2)c1C` [CBK263115], for which the viability at 28.5 h, 10 µM amounted to 90.4%. In the case of `CCCc1cc(CNC(=O)c2ccnn2C(C)C)on1` [CBK282047], the viability at 28.5 h, 10 µM was found to be 97.4%. For `NC(=O)c1ccc(NC(=O)CCCc2nc(-c3ccccc3Cl)no2)cc1` [CBK268932], the viability at 28.5 h, 10 µM is 103%. As for `CC(NC(=O)C1(Cn2ccnc2)CC1)c1nc(-c2ccccn2)no1` (centres unmarked) [CBK307514], the viability at 28.5 h, 10 µM turned out to be 107%. For the compound `O=C(CCC1C(=O)NC(=O)NC1=O)Nc1ccc(Oc2ccc(F)cc2)cc1` [CBK285712], under “bulk resorufin, single well”, the viability at 28.5 h, 10 µM stood at 88%. Consider `CC(=O)N1CCc2c([nH]c3ccc(Br)cc23)C12CCN(CCCC#N)CC2` [CBK039724], for which the viability at 28.5 h, 10 µM turned out to be 83.2%. On the same count and under the same terms, with `Cn1c(SCC(=O)Nc2ccc(N3CCOCC3)c(Cl)c2)nnc1-c1ccc(N)cc1` [CBK265777] the figure was 102%.

In the case of `CC1CCCC(C)N1CC(=O)Nc1ccccc1Oc1ccccc1` (centres unmarked) [CBK015824C], the viability at 28.5 h, 10 µM came out at 119%. On the same count and under the same terms, the figure for `Cc1cc(-c2nccnc2N2CCN(CCN(C)C)CC2)cc(C)c1O` [CBK037184] is 105%; for `O=C(Nc1ccc(Br)cc1)C1CC(O)CN1C(=O)OCc1ccccc1` (centres unmarked) [CBK263233] it is 101%. As to `Cc1ccc(NC(=S)NCCc2ccc(S(N)(=O)=O)cc2)c(C)c1` [CBK264870], the viability at 28.5 h, 10 µM worked out at 93.9%. In the case of `Cc1noc(C)c1CC(=O)Nc1nc2c(cc1C#N)CCCC2` [CBK306429], the viability at 28.5 h, 10 µM came out at 97.1%. Take `O=C(OCCN1CCOCC1)c1ccccc1I` [CBK033860]: the viability at 28.5 h, 10 µM is 95.4%. As to `CNc1ccc2cccc(OCCO)c2n1` [CBK149727], the viability at 28.5 h, 10 µM was determined as 95.6%. On the same count and under the same terms, the figure for `CC(C)(CO)CNC(=O)c1cnc(-c2ccccc2)c(-c2ccncc2)c1` [CBK036734] is 111%; for `CCOC(=O)CN1CCC(Oc2cncc(OCc3cccnc3)n2)C1` (centres unmarked) [CBK084462] it is 99.4%; for `Cc1nc(COC(=O)c2ccc(C#N)c(C)n2)cs1` [CBK297775] it is 88.9%. On the same count and under the same terms, with `CCN1CCN(C(=O)c2cc(C)[nH]n2)CC1` [CBK200377] the figure was 108%. Still for that read-out and setting: with `O=C(O)c1ccc(CNCCc2c[nH]c3ccccc23)cc1` [CBK287265] the figure was 87.6%.

Turning to `CS(=O)(=O)CCS(=O)(=O)N1CCOCC1c1cccc(F)c1` (centres unmarked) [CBK304111], the viability at 28.5 h, 10 µM worked out at 84.2%. As for `Cc1ccc(Cn2c(=N)n(CC(=O)c3ccc(Br)cc3)c3ccccc32)cc1` [CBK262979B], the viability at 28.5 h, 10 µM was found to be 94%.

On to `O=C(O)CN(c1ccccc1[N+](=O)[O-])S(=O)(=O)c1ccccc1` [CBK263158], for which the viability at 28.5 h, 10 µM was 95.6%.

Take `COc1cc(-n2cnc3cc(-c4ccc(Cl)cc4)sc3c2=O)ccc1OCCN1CCCC1` [CBK089844C]: the viability at 28.5 h, 10 µM turned out to be 40.7%.

In the case of `COc1cc(-c2nnc(CSCc3n[nH]c(=O)[nH]3)o2)cc(OC)c1OC` [CBK299814], the viability at 28.5 h, 10 µM was 99.5%.

On to `O=C(O)CCNc1ncnc2ccccc12` [CBK126920], for which the viability at 28.5 h, 10 µM turned out to be 99.4%. Turning to `COc1ccc2cc(C(=O)N3CCc4[nH]c(=O)c(C#N)cc4C3)[nH]c2c1` [CBK304622], the viability at 28.5 h, 10 µM turned out to be 87.8%. For `CS(=O)(=O)c1ccc(-c2nccnc2N2CCN(c3ccncc3)CC2)cc1` [CBK036924], the viability at 28.5 h, 10 µM stood at 98.5%. In the case of `CCn1c(SCC(=O)Nc2cc(Cl)ccc2O)nnc1-c1ccccc1` [CBK269680], the viability at 28.5 h, 10 µM is 87.4%. As to `COc1nccnc1N1CCN(Cc2cccnc2)CC1` [CBK084213], the viability at 28.5 h, 10 µM was determined as 91.2%.

`O=S(=O)(c1ccc(Cl)c(Cl)c1)c1ccc2nccc(N3CCNCC3)c2c1` [CBK036497C]: the viability at 28.5 h, 10 µM was found to be 84.8%. On the same count and under the same terms, the figure for `O=C1NC2(CCC(=O)N(Cc3ccccc3)CC2)Oc2ccccc21` (centres unmarked) [CBK284438] is 91.6%. Still for that read-out and setting: with `Cn1c(N2CC[C@H](O)C2)nc2cc(C(=O)NCc3ccsc3)ccc21` [CBK307471] the figure was 87.5%. Take `C/C(=N\NC(=O)Cc1ccc([N+](=O)[O-])cc1[N+](=O)[O-])c1ccccc1O` [CBK261175]: the viability at 28.5 h, 10 µM was found to be 88.8%.

On to `COc1cc(NC(=O)COc2ccc3ccccc3c2)c(C(=O)O)cc1OC` [CBK264181], for which the viability at 28.5 h, 10 µM amounted to 103%. Still for that read-out and setting: with `CCOC(=O)N1CCC(NC(=O)N(Cc2cccnc2)Cc2ccc3c(c2)OCO3)CC1` [CBK158897] the figure was 95.4%; with `CCCNC(=O)c1cc(C2CCCN(Cc3ccccc3)C2)no1` (centres unmarked) [CBK283388], 98%; with `C=CCn1c(SCC(=O)Nc2ccnc3ccccc23)nnc1-c1cccnc1` [CBK268723], 88.6%. Take `Cc1occc1C(=O)NC(C)c1ccc2c(c1)OCO2` (centres unmarked) [CBK268153]: the viability at 28.5 h, 10 µM came out at 105%. Regarding `CC(=O)NCCc1nc2ccc(NC(=O)Cn3nc(C)c4ccccc4c3=O)cc2n1C` [CBK268249], the viability at 28.5 h, 10 µM is 111%. Same read-out and setting: with `COc1cccc(CNCC(c2ccnn2C)C(C)C)n1` (centres unmarked) [CBK304858] the figure was 105%; with `COc1cc(Nc2cncc(-c3ccccc3CO)n2)cc(OC)c1OC` [CBK037160], 95.4%. With `Cc1ccc(S(=O)(=O)N=C2NCN(CC(=O)O)CN2)cc1` [CBK261983N], the viability at 28.5 h, 10 µM turned out to be 93.6%.

Consider `COc1ccnc(C(=O)N(Cc2ccccn2)CC2CCCO2)c1` (centres unmarked) [CBK307303], for which the viability at 28.5 h, 10 µM was 94.1%. As for `Cc1ccccc1OC(C)C(=O)NCCCc1ccccc1` (centres unmarked) [CBK268571], the viability at 28.5 h, 10 µM came out at 88.3%.

`Cc1cc(CNC(=O)C(C)Cn2cccn2)on1` (centres unmarked) [CBK281486]: the viability at 28.5 h, 10 µM is 90.9%.

`CCNS(=O)(=O)c1ccc(Cn2nc(NC(=O)C3COc4ccccc4O3)c3ccccc32)cc1` (centres unmarked) [CBK061613]: the viability at 28.5 h, 10 µM worked out at 109%. Same read-out and setting: the figure for `COc1cccc(C(=O)N2CCC(NC(=O)Cc3ccc(F)cc3)CC2)c1` [CBK155027] is 85%. On the same count and under the same terms, the figure for `Cc1noc(C)c1CC(=O)NCc1cccc(C#N)c1` [CBK305822] is 106%. Same read-out and setting: with `Cc1nc2ncc(-c3ccccc3C(=O)N(C(C)C)C(C)C)cn2n1` [CBK307054] the figure was 84.1%; with `Nc1cc2cccnc2nc1-c1cc(F)cc(F)c1` [CBK067604], 88.3%; with `Cc1ccc(S(=O)(=O)NC(=O)Nc2cccc(NC(=O)NS(=O)(=O)c3ccc(C)cc3)n2)cc1` [CBK296102], 103%. As to `CCc1cccc(C)c1NC(=O)CN(c1cccc(Cl)c1Cl)S(=O)(=O)c1ccc(C)cc1` [CBK268666], the viability at 28.5 h, 10 µM is 84.7%. As to `Cc1c(C(=O)NCCN2CCCC(C(N)=O)C2)[nH]c2c(F)cccc12` (centres unmarked) [CBK306877], the viability at 28.5 h, 10 µM turned out to be 81.7%. The same measure, in the same setting: with `CN(C)S(=O)(=O)c1cccnc1OCC(O)CNC(C)(C)C` (centres unmarked) [CBK058059] the figure was 84.5%; with `Cc1ccc(S(=O)(=O)Nc2ccc(C3(c4ccc(NS(=O)(=O)c5ccc(C)cc5)cc4)c4ccccc4-c4ccccc43)cc2)cc1` [CBK261154], 102%; with `CSc1nnc(N(C)S(=O)(=O)c2ccc(C)cc2)s1` [CBK155272], 87.2%. Turning to `Cc1nccn1CC1(O)CCN(C(=O)C2(c3ccccc3)CC2)CC1` [CBK284659], the viability at 28.5 h, 10 µM amounted to 94.6%.

For the compound `CC(NC(=O)Cn1c(=O)oc2ccc(Cl)cc21)C1CC2CCC1C2` (centres unmarked) [CBK281636], the viability at 28.5 h, 10 µM worked out at 87.7%. In the case of `CC(=O)Nc1ccc(-c2nc3cc(-c4nc5ccc(NC(C)=O)cc5[nH]4)ccc3[nH]2)cc1` [CBK261165], the viability at 28.5 h, 10 µM came to 91.2%.
